Measured values taken from US11965039B2, “Compstatin analogues and their medical uses” (priority 2018, dated 2024).
pIC50: −log10 of the molar value. Read-outs that look alike come from different tables or passages of the source. Positions of bridges follow the written chain, without caps; N, C: chain ends. Non-standard residues stand in square brackets, D forms with d. Residues, ends and D or L forms follow the SMILES beside them. Sar = CNCC(=O)O

Tests used:
[1] = test system: classical complement pathway; assay: In vitro haemolysis assay (inhibition of classical complement pathway); assay type: cell-based, human; details: human serum, sensitized sheep red blood cells
Procedure, shortened: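 Compound dilutions preincubated 15 min at room temperature with diluted human serum (titrated per batch for 70-90% maximal haemolysis), then antibody-sensitized sheep RBC (10^7/well) added for 30 min at 37 °C in Tris/casein buffer, pH 7.4. Stopped with EDTA; haemolysis read at 405 nm; IC50 by 4PL fit.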

[2] = Solubility test at 10 mg/mL (visual inspection and light scattering); assay type: physicochemical
Description: The solubility of compounds was assessed by measuring light scattering over a pH interval from pH 4 to pH 7.5.
Compounds were dissolved in a stock solution of 20 mg/mL in H2O at pH 2.5 or pH 10. These stock solutions were diluted 1:1 with 200 mM buffered solution to reach a final solution of 10 mg/mL compound in 100 mM buffer. The 5 investigated conditions were (1) acetate pH 4.0, (2) acetate pH 5.0, (3) phosphate pH 6.0, (4) phosphate pH 7 and (5) phosphate pH 7.5.
Visual inspection included manually checking the 96 well plate for wells that are clear or non-clear. In addition to this a picture of the 96 well plate is taken.
Absorbance was measured at four wavelengths: 280 nm, 325 nm, 340 nm and 360 nm in an UV transparent 96 well microplate in a SpectraMax 190 microplate reader (Molecular Devices).
The criteria for this was a combination of visual inspection and light scattering not exceeding 0.1 AU, where values below 0.1 AU are good in visually clear samples.

[3] = Table 3, given as upper bounds, read-out: IC50, inhibition of hemolysis
[4] = Table 4, valine 3 vs isoleucine 3 pairs, read-out: CP hemolysis IC50

Row | Solubility, condition 4 ([2]; Phosphate pH 7) | Solubility, condition 5 ([2]; Phosphate pH 7.5) | Solubility, Condition 1 ([2]; acetate pH 4.0, visual inspection and absorbance) | Solubility, Condition 2 ([2]; acetate pH 5.0, visual inspection and absorbance) | Solubility, Condition 3 ([2]; phosphate pH 6.0, visual inspection and absorbance) | SMILES | pIC50 [1, 3] | Solubility, Condition 1 ([2]; Acetate pH 4) | Solubility, Condition 2 ([2]; Acetate pH 5) | Solubility, Condition 3 ([2]; Phosphate pH 6) | Solubility, Condition 4 ([2]; Phosphate pH 7) | Solubility, Condition 5 ([2]; Phosphate pH 7.5) | pIC50 [1, 4]
1 | – | – | – | – | – | CC[C@H](C)[C@H](NC(C)=O)C(=O)N[C@H]1CSSC[C@@H](C(=O)N[C@@H](CCC(=O)O)C(N)=O)NC(=O)[C@H](CCCNC(=N)N)NC(=O)[C@H](Cc2c[nH]cn2)NC(=O)[C@H](CCC(=O)O)NC(=O)CNC(=O)[C@H](Cc2c[nH]c3ccccc23)NC(=O)[C@H](CC(=O)O)NC(=O)[C@H](CCC(N)=O)NC(=O)[C@H](Cc2c[nH]c3ccccc23)NC(=O)[C@H]([C@@H](C)CC)NC1=O [Compound 22] (Ac-ICIWQDWGEHRCE-NH2; disulfide 2-12) | > 7.00 | + (“+” denotes solubility at the given condition, as determined by UV absorbance being less than 0.1 AU at 340 nm and the sample being clear when manually inspected) | − (“−” denotes lack of solubility at the given condition, as UV absorbance at 340 nm exceeds 0.1 AU and/or it is visibly turbid or contains particles) | − (“−” denotes lack of solubility at the given condition, as UV absorbance at 340 nm exceeds 0.1 AU and/or it is visibly turbid or contains particles) | + (“+” denotes solubility at the given condition, as determined by UV absorbance being less than 0.1 AU at 340 nm and the sample being clear when manually inspected) | + (“+” denotes solubility at the given condition, as determined by UV absorbance being less than 0.1 AU at 340 nm and the sample being clear when manually inspected) | –
2 | good | good | cloudy | cloudy | cloudy | CC[C@H](C)[C@H](NC(C)=O)C(=O)N[C@H]1CSSC[C@@H](C(=O)N[C@H](C(=O)N[C@@H](CCC(=O)O)C(=O)NCC(=O)N[C@@H](CCC(=O)O)C(N)=O)[C@@H](C)O)NC(=O)[C@H](CCCNC(=N)N)NC(=O)[C@H](Cc2c[nH]cn2)NC(=O)[C@H](CCC(=O)O)NC(=O)CNC(=O)[C@H](Cc2c[nH]c3ccccc23)NC(=O)[C@H](CC(=O)O)NC(=O)[C@H](CCC(N)=O)NC(=O)[C@H](Cc2c[nH]c3ccccc23)NC(=O)[C@H]([C@@H](C)CC)NC1=O [Compound 24] (Ac-ICIWQDWGEHRCTEGE-NH2; disulfide 2-12) | > 7.00 | − (“−” denotes lack of solubility at the given condition, as UV absorbance at 340 nm exceeds 0.1 AU and/or it is visibly turbid or contains particles) | − (“−” denotes lack of solubility at the given condition, as UV absorbance at 340 nm exceeds 0.1 AU and/or it is visibly turbid or contains particles) | − (“−” denotes lack of solubility at the given condition, as UV absorbance at 340 nm exceeds 0.1 AU and/or it is visibly turbid or contains particles) | + (“+” denotes solubility at the given condition, as determined by UV absorbance being less than 0.1 AU at 340 nm and the sample being clear when manually inspected) | + (“+” denotes solubility at the given condition, as determined by UV absorbance being less than 0.1 AU at 340 nm and the sample being clear when manually inspected) | 7.05
3 | – | – | – | – | – | CC[C@H](C)[C@H](NC(C)=O)C(=O)N[C@H]1CSSC[C@@H](C(=O)N[C@H](C(=O)N[C@@H](CCC(=O)O)C(=O)N[C@@H](C)C(N)=O)[C@@H](C)O)NC(=O)[C@H](CCCNC(=N)N)NC(=O)[C@H](Cc2c[nH]cn2)NC(=O)[C@H](CCC(=O)O)NC(=O)CNC(=O)[C@H](Cc2c[nH]c3ccccc23)NC(=O)[C@H](CC(=O)O)NC(=O)[C@H](CCC(N)=O)NC(=O)[C@H](Cc2c[nH]c3ccccc23)NC(=O)[C@H]([C@@H](C)CC)NC1=O [Compound 25] (Ac-ICIWQDWGEHRCTEA-NH2; disulfide 2-12) | > 7.00 | + (“+” denotes solubility at the given condition, as determined by UV absorbance being less than 0.1 AU at 340 nm and the sample being clear when manually inspected) | − (“−” denotes lack of solubility at the given condition, as UV absorbance at 340 nm exceeds 0.1 AU and/or it is visibly turbid or contains particles) | − (“−” denotes lack of solubility at the given condition, as UV absorbance at 340 nm exceeds 0.1 AU and/or it is visibly turbid or contains particles) | + (“+” denotes solubility at the given condition, as determined by UV absorbance being less than 0.1 AU at 340 nm and the sample being clear when manually inspected) | + (“+” denotes solubility at the given condition, as determined by UV absorbance being less than 0.1 AU at 340 nm and the sample being clear when manually inspected) | –
4 | – | – | – | – | – | CC[C@H](C)[C@H](NC(C)=O)C(=O)N[C@H]1CSSC[C@@H](C(=O)N[C@@H](CCC(=O)O)C(=O)NCC(=O)N[C@@H](CCC(=O)O)C(N)=O)NC(=O)[C@H](CCCNC(=N)N)NC(=O)[C@H](Cc2c[nH]cn2)NC(=O)[C@H](CCC(=O)O)NC(=O)CNC(=O)[C@H](Cc2c[nH]c3ccccc23)NC(=O)[C@H](CC(=O)O)NC(=O)[C@H](CCC(N)=O)NC(=O)[C@H](Cc2c[nH]c3ccccc23)NC(=O)[C@H]([C@@H](C)CC)NC1=O [Compound 27] (Ac-ICIWQDWGEHRCEGE-NH2; disulfide 2-12) | > 7.00 | − (“−” denotes lack of solubility at the given condition, as UV absorbance at 340 nm exceeds 0.1 AU and/or it is visibly turbid or contains particles) | − (“−” denotes lack of solubility at the given condition, as UV absorbance at 340 nm exceeds 0.1 AU and/or it is visibly turbid or contains particles) | − (“−” denotes lack of solubility at the given condition, as UV absorbance at 340 nm exceeds 0.1 AU and/or it is visibly turbid or contains particles) | + (“+” denotes solubility at the given condition, as determined by UV absorbance being less than 0.1 AU at 340 nm and the sample being clear when manually inspected) | + (“+” denotes solubility at the given condition, as determined by UV absorbance being less than 0.1 AU at 340 nm and the sample being clear when manually inspected) | –
5 | – | – | – | – | – | CC[C@H](C)[C@H](NC(=O)[C@H](C)NC(=O)[C@H](CO)NC(=O)CNC(=O)[C@H](CCC(=O)O)NC(C)=O)C(=O)N[C@H]1CSSC[C@@H](C(=O)N(C)CC(=O)N[C@@H](CCC(=O)O)C(N)=O)NC(=O)[C@H](CCCNC(=N)N)NC(=O)[C@H](Cc2c[nH]cn2)NC(=O)[C@H](CCC(=O)O)NC(=O)CNC(=O)[C@H](Cc2c[nH]c3ccccc23)NC(=O)[C@H](CC(=O)O)NC(=O)[C@H](CCC(N)=O)NC(=O)[C@H](Cc2c[nH]c3ccccc23)NC(=O)[C@H]([C@@H](C)CC)NC1=O [Compound 28] (Ac-EGSAICIWQDWGEHRC[Sar]E-NH2; disulfide 6-16) | > 7.00 | + (“+” denotes solubility at the given condition, as determined by UV absorbance being less than 0.1 AU at 340 nm and the sample being clear when manually inspected) | + (“+” denotes solubility at the given condition, as determined by UV absorbance being less than 0.1 AU at 340 nm and the sample being clear when manually inspected) | + (“+” denotes solubility at the given condition, as determined by UV absorbance being less than 0.1 AU at 340 nm and the sample being clear when manually inspected) | + (“+” denotes solubility at the given condition, as determined by UV absorbance being less than 0.1 AU at 340 nm and the sample being clear when manually inspected) | + (“+” denotes solubility at the given condition, as determined by UV absorbance being less than 0.1 AU at 340 nm and the sample being clear when manually inspected) | 7.06
6 | – | – | – | – | – | CC[C@H](C)[C@@H]1NC(=O)[C@@H](NC(=O)[C@@H](NC(=O)[C@H](CCC(=O)O)NC(=O)CNC(=O)[C@H](CCC(=O)O)NC(C)=O)[C@@H](C)CC)CSSC[C@@H](C(=O)N[C@H](C(N)=O)[C@@H](C)O)NC(=O)[C@H](CCCNC(=N)N)NC(=O)[C@H](Cc2c[nH]cn2)NC(=O)[C@H](CCC(=O)O)NC(=O)CNC(=O)[C@H](Cc2c[nH]c3ccccc23)NC(=O)[C@H](CC(=O)O)NC(=O)[C@H](CCC(N)=O)NC(=O)[C@H](Cc2c[nH]c3ccccc23)NC1=O [Compound 30] (Ac-EGEICIWQDWGEHRCT-NH2; disulfide 5-15) | > 7.00 | − (“−” denotes lack of solubility at the given condition, as UV absorbance at 340 nm exceeds 0.1 AU and/or it is visibly turbid or contains particles) | − (“−” denotes lack of solubility at the given condition, as UV absorbance at 340 nm exceeds 0.1 AU and/or it is visibly turbid or contains particles) | – | + (“+” denotes solubility at the given condition, as determined by UV absorbance being less than 0.1 AU at 340 nm and the sample being clear when manually inspected) | + (“+” denotes solubility at the given condition, as determined by UV absorbance being less than 0.1 AU at 340 nm and the sample being clear when manually inspected) | –
